# From patent publication US20050258288A1, “High pressure media milling system and process of forming particles” (E. I. du Pont de Nemours and Company, priority 2003, published 2005)
# Legend:
# [1] = Particle size of milled product by Malvern Mastersizer 2000 (laser diffraction); format: physicochemical; settings: for X10 / X50 / X90 (90% cumulative undersize): Example 4: piroxicam milled in supercritical CO2, 120 min, by collection method
# [2] = Surface area measurements (BET) of milled product; format: physicochemical; settings: Example 4: piroxicam milled in supercritical CO2; for BET: Table 2
# Text: The yield of the run with the depressurization was 10.7 grams, while in the case of the nozzle dispersion only 2.4 grams were recovered.
# [3] = Example 1: lactose + oleic acid milled in supercritical CO2, nylon media, 60 min
# [4] = Example 3: lactose mono hydrate + Span85 milled in liquified HFC 134a, 1000 psi, 60 min
# [5] = Example 2: ibuprofen + sodium lauryl sulfate milled in supercritical CO2, ceramic media, 60 min
smiles,measurement,setting,value
OC[C@H]1O[C@@H](O[C@H]2[C@H](O)[C@@H](O)C(O)O[C@@H]2CO)[C@H](O)[C@@H](O)[C@H]1O (stereo partly shown) [lactose],10% cumulative undersize,[1]; [3],3.0 micron
same,90% cumulative undersize,[1]; [3],796 micron
same,median particle size,"[1]; Example 1: lactose + oleic acid milled in supercritical CO2, nylon media, 60 min, collected in high pressure filter",75.889 microns
same,10% cumulative undersize,[1]; [4],1.059 micron
same,90% cumulative undersize,[1]; [4],553 micron
same,median particle size,[1]; [4],4.4 microns
"CN1C(C(=O)Nc2ccccn2)=C(O)c2ccccc2S1(=O)=O [Test 1, piroxicam]",X10,[1],3.00 micron
same,X50,[1],5.70 micron
same,X90 (90% cumulative undersize),[1],10.9 micron
same,BET,[2],11.8 sq. m/g
same,"surface area (BET), specific surface area",[2]; listed as product collected in the filter before depressurization,11.8 sq meter per gram
"CN1C(C(=O)Nc2ccccn2)=C(O)c2ccccc2S1(=O)=O [Test 2, piroxicam]",X10,[1],0.08 micron
same,X50,[1],0.26 micron
same,X90 (90% cumulative undersize),[1],2.04 micron
same,BET,[2],9.4 sq. m/g
same,"surface area (BET), specific surface area",[2]; listed as nozzle dispersed material,9.7 sq meter per gram
CC(C)Cc1ccc(C(C)C(=O)O)cc1 (stereo not shown) [ibuprofen],10% cumulative undersize,[1]; [5],1.097 micron
same,median size,[1]; [5],2.6 micron
same,90% cumulative undersize,"[1]; Example 2: ibuprofen + sodium lauryl sulfate milled in supercritical CO2, due to agglomeration",219 microns
